Source: patent publication US4645779A, “Dialkylaminoalkoxybenzylalcohol derivatives, process for their preparation and pharmaceutical compositions containing them” (Richter Gedeon Vegyeszeti Gyar Rt, priority 1982, dated 1987)

Experiments:
[1] = Acute toxicity, single oral dose, 14 days observation; type: in vivo, rat; details: rat, in vivo, po, 500 mg./kg. p.o., n=10, read-out: Perished animals (%)
Procedure: (§1) The acute toxicity of the compounds provided by the invention was determined on Wistar rats of both sexes, each weighing 160 to 180 g., which had been treated with a single 500 mg./kg. dose of the test compounds, orally. […] In Table 3 the percentage of the perished animals is given.

Hann.-Wistar rats = experiment: Effect on ethanolic narcosis period (righting reflex); type: in vivo, rat; details: 1 h before ethanol 3.5 g./kg. i.p., control = 100 ± 4.0, n=10
Procedure: The effect of the compounds according to the invention on ethanolic narcosis period was tested on Hann.-Wistar rats of both sexes, weighing 160 to 180 g. each. The animals were fasted for 16 hours prior to treatment. Groups of ten were then treated with various doses of the compounds of the formula (I) orally. One hour after treatment the animals were given a 3.5 g./kg. dose of ethanol, intraperitoneally. The narcosis period of the animals was measured from the elapse of the righting reflex until a spontaneous correction of the body position. The average of the narcosis period and the standard error were calculated, and the results are given in percentage of the control in Table 1. Abbreviations: x±S.E.=means value ± standard error n=number of animals The control group was treated with a placebo and a […]. dose of ethanol. Narcosis period of the control: 88.5±3.54x±S.E. minutes

BALB/c mice = experiment: Effect on ethanolic locomotoric hyperactivity / locomotor activity (Animex BSE motimeter); type: in vivo, mouse; details: n=15
Procedure: The effect of the compounds provided by the invention on ethanolic locomotoric hyperactivity was tested on BALB/c mice of both sexes, each weighing 16 to 18 g. The test materials were administered to groups of 15 in a 40 mg./kg. oral dose, one hour before administering a placebo orally or a 2 g./kg. dose of ethanol intraperitoneally. The control animals were treated with a placebo. The locomotor activity of the animals was measured for two hours, using an Animex BSE motimeter. The results are shown as a Table 2, in percentage of the control.
°Control (treated with placebo): ^-x ± S.E. = 3118.3 ±
305.6 total motion/2 hours

Wistar rats = experiment: Acute toxicity, single oral dose, 14 days observation; type: in vivo, rat; details: 500 mg./kg. p.o., n=10
Procedure: as §1

[2] = in vivo; cited from earlier work
[3] = in vivo; cited from earlier work; remark: listed apart in the source
mice = details: cited from earlier work

## CCCN(CCC)CCCOc1ccc(C(O)(CC)c2ccccc2OC)cc1 (stereo not drawn) [A, α-ethyl-α-(2-methoxyphenyl)-4-[3-(di-n-propylamino)-propoxy]-benzylalcohol]
[1]
  mortality at 336 h: 0%
Hann.-Wistar rats; 5.0 mg./kg. orally
  Ethanolic narcosis period, control ± S.E. %: 60 ± 10.1%
Hann.-Wistar rats; 10.0 mg./kg. orally
  Ethanolic narcosis period, control ± S.E. %: 50 ± 6.9%

## CCCN(CCC)CCCOc1ccc(C(O)(CC)c2cccc(Cl)c2)cc1 (stereo not drawn) [B, α-ethyl-α-(3-chlorophenyl)-4-[3-(di-n-propylamino)-propoxy]-benzylalcohol]
[1]
  mortality at 336 h: 0%
Hann.-Wistar rats; 0.3 mg./kg. orally
  Ethanolic narcosis period, control ± S.E. %: 65 ± 6.8%
Hann.-Wistar rats; 1.0 mg./kg. orally
  Ethanolic narcosis period, control ± S.E. %: 53 ± 4.7%
Hann.-Wistar rats; 10.0 mg./kg. orally
  Ethanolic narcosis period, control ± S.E. %: 49 ± 2.8%
BALB/c mice; B + ethanol 2000 mg./kg. i.p., 40 mg./kg. oral 1 h before, control = 100 ± 9.8, ethanol + placebo = 170 ± 11.8
  Locomotor activity total motion/2 hour (%): 70 ± 8.4%
BALB/c mice; B + placebo (no ethanol), 40 mg./kg. oral, control = 100 ± 9.8
  Locomotor activity total motion/2 hour (%): 108 ± 13.3%

## CCC(O)(c1ccc(OCCN(C(C)C)C(C)C)cc1)c1ccccc1C(F)(F)F (stereo not drawn) [Compound C, α-ethyl-α-(2-trifluoromethylphenyl)-4-[3-(di-isopropylamino)-ethoxy]-benzylalcohol]
Wistar rats
  Perished animals (%): 0%
Hann.-Wistar rats; 40.0 mg./kg. orally
  Ethanolic narcosis period, control ± S.E. %: 62 ± 5.1%

## N[C@@H](CS)C(=O)O [L-cysteine, reference compound]
[2]
  alcoholic intoxication, i.e. narcosis period (in words): shortened
[1]
  mortality at 336 h: 0%
Hann.-Wistar rats; 500.0 mg./kg. orally
  Ethanolic narcosis period, control ± S.E. %: 63 ± 4.2%

## CC(N)Cc1ccccc1 (centres unmarked) [amphetamine]
[2]
  narcotizing effect of alcohol (in words): moderate the narcotizing effect of alcohol
[3]
  motoric incoordination (ataxia) (in words): prolong the motoric incoordination (ataxia)

## Cn1c(=O)c2c(ncn2C)n(C)c1=O [caffeine]
[2]
  narcotizing effect of alcohol (in words): moderate the narcotizing effect of alcohol
[3]
  motoric incoordination (ataxia) (in words): prolong the motoric incoordination (ataxia)

## CC(N)(Cc1ccc(O)cc1)C(=O)O (stereo not drawn) [α-methyl-paratyrosine]
mice; in the effective dose range
  spontaneous locomotoric activity (in words): a decrease of the spontaneous locomotoric activity
mice; mice
  ethanolic locomotoric hyperactivity (in words): normalizes the ethanolic locomotoric hyperactivity
